Assay results as given in USRE46511E1, “Fused pyrimidine derivatives for inhibition of tyrosine kinase activity” (HANMI SCIENCE CO., LTD., priority 2010, dated 2017).
Where two headings read alike, the source gives them in different places.

How the values were obtained:
[1] = test system: NCI-H1975 (EGFR L858R/T790M); assay: Inhibition test for growth of cancer cell expressing EGFR (MTS), NCI-H1975; type: cell-based; settings: NCI-H1975 cells, 48 hours, MTS, read-out: GI50 NCI-H1975 EGFR L858R/T790M
Protocol: (§4) A431 cell line was incubated in a high-glucose DMEM (Dulbecco's Modified Eagle's Medium) supplemented with 10% fetal bovine serum (FBS) and 1% penicillin/streptomycin (Gibco BRL), and HCC827 and NCI-H1975 cell lines were incubated in an RPMI medium supplemented with 10% FBS, 1% penicillin/streptomycin and 1% sodium pyruvate.
(§5) The cancer cell lines stored in a liquid nitrogen tank were each quickly thawed at 37° C., and centrifuged to remove the medium. The resulting cell pellet was mixed with a culture medium, incubated in a culture flask at 37° C. under 5% CO2 for 2 to 3 days, and the medium was removed. The remaining cells were washed with DPBS (Dulbecco's Phosphate Buffered Saline) and separated from the flask by using Tripsin-EDTA. […] 100 μl of the diluted cell solution was added to each well of a 96-well plate, and incubated at 37° C. under 5% CO2 for 1 day.
(§6) In case that the test compound was not soluble in DMSO, 1% HCl was added thereto and treated in a 40° C. water bath for 30 mins until a complete dissolution was attained. The DMSO solution containing test compound was diluted with a culture medium to a final concentration of 100 μM, and then diluted 10 times serially to 10^−6 μM (a final concentration of DMSO was less than 1%).
(§7) The medium was removed from each well of the 96-well plate. And then, 100 μl of a test compound solution was added to each well holding the cultured cells, and the plate was incubated at 37° C. under 5% CO2 for 72 hours (except that NCI-H1975 cells were incubated for 48 hours). After removing the medium from the plate, 50 μA of 10% trichloroacetic acid was added to each well, and the plate was kept at 4° C. for 1 hour to fix the cells to the bottom of the plate. The added 10% trichloroacetic acid solution was removed from each well, the plate was dried, 100 μA of an SRB (Sulforhodamine-B) dye solution at a concentration of 0.4% dissolved in 1% acetic acid was added thereto, and the resulting mixture was reacted for 10 mins at room temperature. After removing the dye solution, the plate was washed with water, and well dried. When the dye solution was not effectively removed by water, 1% acetic acid was used. 150 μA of 10 mM trisma base was added to each well, and the absorbance at 540 nm wavelength was determined with a microplate reader.

JAK3 = biological target: T1, JAK3 (Homo sapiens, UniProt P52333); assay: z-lyte kinase assay, JAK3; type: biochemical
T1 construct: purchased Invitrogen
T1 sequence (P52333 1-1124): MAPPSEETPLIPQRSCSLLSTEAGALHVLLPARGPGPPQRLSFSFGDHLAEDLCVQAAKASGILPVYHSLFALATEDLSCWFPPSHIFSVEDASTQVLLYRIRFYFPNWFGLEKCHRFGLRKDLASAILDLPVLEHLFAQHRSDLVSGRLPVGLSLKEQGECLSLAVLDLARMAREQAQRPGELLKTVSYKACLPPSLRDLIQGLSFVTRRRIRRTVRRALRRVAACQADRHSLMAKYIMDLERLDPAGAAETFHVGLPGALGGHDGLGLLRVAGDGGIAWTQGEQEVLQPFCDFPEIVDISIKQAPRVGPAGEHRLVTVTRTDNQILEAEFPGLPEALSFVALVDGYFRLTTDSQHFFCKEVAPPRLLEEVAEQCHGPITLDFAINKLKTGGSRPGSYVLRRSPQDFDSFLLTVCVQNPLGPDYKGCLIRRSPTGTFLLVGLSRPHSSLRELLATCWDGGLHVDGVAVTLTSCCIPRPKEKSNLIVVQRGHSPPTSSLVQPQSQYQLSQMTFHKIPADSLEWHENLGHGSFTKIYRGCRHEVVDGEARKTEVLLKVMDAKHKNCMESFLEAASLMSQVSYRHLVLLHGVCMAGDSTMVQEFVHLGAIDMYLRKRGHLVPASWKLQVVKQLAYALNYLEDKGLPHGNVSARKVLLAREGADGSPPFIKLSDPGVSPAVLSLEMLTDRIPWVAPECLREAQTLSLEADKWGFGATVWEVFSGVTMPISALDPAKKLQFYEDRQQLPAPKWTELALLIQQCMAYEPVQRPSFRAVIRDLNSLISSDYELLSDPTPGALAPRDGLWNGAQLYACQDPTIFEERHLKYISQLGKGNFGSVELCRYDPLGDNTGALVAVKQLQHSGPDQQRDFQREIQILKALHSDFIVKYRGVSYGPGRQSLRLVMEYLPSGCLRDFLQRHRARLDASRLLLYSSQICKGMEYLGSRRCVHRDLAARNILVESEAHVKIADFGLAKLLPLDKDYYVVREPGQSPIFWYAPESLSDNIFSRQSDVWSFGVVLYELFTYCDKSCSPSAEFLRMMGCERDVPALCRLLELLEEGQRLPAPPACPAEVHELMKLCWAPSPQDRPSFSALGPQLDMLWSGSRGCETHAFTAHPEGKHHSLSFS
Protocol: (§1) The inhibiting activities of the inventive compounds obtained in Examples 1 to 237 against EGFR WT and EGFR L858R/T790M kinase were determined using z-lyte kinase assay kit (Invitrogen, PV3191). The kinases used in the test were purchased from Invitrogen.
(§2) The compounds obtained in Examples 1 to 237 were each prepared to 10 mM DMSO solution, and a solution containing 4% DMSO were prepared therefrom and diluted to a concentration of 1 μM to 0.0001 μM. […] The test was conducted in a 384 well polystyrene flat-bottomed plates. 5 μl of the diluted solution of each compound was added to each well, and 10 μl of a mixture of peptide substrate and kinase in a suitable concentration and 5 μl of 5˜300 μM ATP solution were successively added thereto and the plate was incubated in a stirrer at room temperature for 60 minutes. After 60 mins, 10 μl of coloring reagent was added to the resulting mixture to initiate a fluorescence reaction of peptide substrate and a terminating solution was added thereto for terminating the reaction. A fluorescence value of each well was determined with a fluorescence meter (Molecular Device) at 400 nm (excitation filter) and 520 nm (emission filter). […] The calculation of IC50 and the result analysis were carried out by using Microsoft Excel.
(§3) The inhibiting activities of the inventive compounds obtained in Examples 1 to 237 against BTK and JAK3 kinases were determined, respectively. The procedure of Test Example 2 was repeated except that BTK and JAK3 kinases (Invitrogen) were employed instead of using the EGFR kinase.

[2] = test system: HCC827 (EGFR DelE746_A750); assay: Inhibition test for growth of cancer cell expressing EGFR (SRB), HCC827; type: cell-based; settings: HCC827 cells, 72 hours, SRB, read-out: GI50 HCC827 EGFR DelE746_A750;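 note: cells in 96-well plates exposed to tenfold serial dilutions from 100 µM, fixed with trichloroacetic acid, SRB-stained, absorbance read at 540 nm, DMSO under 1%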
Protocol: as §4, §5, §6, §7

BTK = biological target: T2, BTK (Homo sapiens, UniProt Q06187); assay: z-lyte kinase assay, BTK; type: biochemical
T2 construct: purchased Invitrogen
Protocol: as §1, §2, §3

T2 sequence (Q06187 whole entry): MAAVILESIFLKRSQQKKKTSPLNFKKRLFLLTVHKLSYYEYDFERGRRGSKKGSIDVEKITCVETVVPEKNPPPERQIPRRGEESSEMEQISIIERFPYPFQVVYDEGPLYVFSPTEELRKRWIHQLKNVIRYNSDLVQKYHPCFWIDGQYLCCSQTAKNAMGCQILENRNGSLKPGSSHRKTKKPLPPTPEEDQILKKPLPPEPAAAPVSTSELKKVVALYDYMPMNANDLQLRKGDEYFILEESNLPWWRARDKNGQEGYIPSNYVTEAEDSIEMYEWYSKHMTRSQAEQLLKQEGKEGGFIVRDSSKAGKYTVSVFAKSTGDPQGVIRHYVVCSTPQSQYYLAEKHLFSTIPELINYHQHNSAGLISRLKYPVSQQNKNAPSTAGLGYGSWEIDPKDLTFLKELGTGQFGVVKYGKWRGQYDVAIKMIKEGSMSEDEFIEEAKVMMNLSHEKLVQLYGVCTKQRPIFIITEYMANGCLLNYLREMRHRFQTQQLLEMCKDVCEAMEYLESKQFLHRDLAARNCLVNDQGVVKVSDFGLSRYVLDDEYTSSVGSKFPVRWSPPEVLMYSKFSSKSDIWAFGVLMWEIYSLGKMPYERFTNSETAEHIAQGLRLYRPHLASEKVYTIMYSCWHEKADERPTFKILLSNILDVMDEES

| GI50 ([1]; Homo sapiens) | IC50 (JAK3) | GI50 ([2]; Homo sapiens, HCC827, 72 h) | IC50 (BTK) | GI50 [1] | GI50 [2] | SMILES |
| --- | --- | --- | --- | --- | --- | --- |
| < 50 nM | 50 to 100 nM | < 50 nM | ≤ 50 nM |  |  | C=CC(=O)Nc1cccc(Oc2nc(Nc3ccc(N4CCN(C)CC4)c(Cl)c3)nc3ccsc23)c1 [Example 7] |
|  | 50 to 100 nM |  | ≤ 50 nM |  |  | C=CC(=O)Nc1cccc(Oc2nc(Nc3ccc(N4CCN(C(=O)CN(C)C)CC4)cc3)nc3ccsc23)c1 [Example 21] |
| < 50 nM | ≤ 50 nM | 50 to 100 nM | ≤ 50 nM |  |  | C=CC(=O)Nc1cccc(Oc2nc(Nc3ccc(N4CC5CC4CN5C)cc3)nc3ccsc23)c1 (stereo not drawn) [Example 28] |
|  | 50 to 100 nM |  | 50 to 100 nM | < 50 nM | 50 to 100 nM | C=CC(=O)Nc1cccc(Oc2nc(Nc3ccc(N4CC[C@@H](n5ccnc5)C4)cc3)nc3ccsc23)c1 [Example 36] |
| 50 to 100 nM | 50 to 100 nM | < 50 nM | 50 to 100 nM |  |  | C=CC(=O)Nc1cccc(Oc2nc(Nc3ccc(N4CCC(CO)CC4)cc3)nc3ccsc23)c1 [Example 40] |
| < 50 nM | 50 to 100 nM | < 50 nM | 50 to 100 nM |  |  | C=CC(=O)Nc1cccc(Oc2nc(Nc3ccc(N4CCC(CN(C)C)CC4)cc3)nc3ccsc23)c1 [Example 41] |
|  | 50 to 100 nM |  | 50 to 100 nM |  |  | C=CC(=O)Nc1cccc(Oc2nc(Nc3ccc(N4CCC(C(=O)O)CC4)cc3)nc3ccsc23)c1 [Example 44] |
| < 50 nM | 50 to 100 nM | < 50 nM | 50 to 100 nM |  |  | C=CC(=O)Nc1cccc(Oc2nc(Nc3ccc(N4CCC(N5CCCC5)CC4)cc3)nc3ccsc23)c1 [Example 47] |
| < 50 nM | ≤ 50 nM | < 50 nM | 50 to 100 nM |  |  | C=CC(=O)Nc1cccc(Oc2nc(Nc3ccc(C4CCCN(C)C4)cc3)nc3ccsc23)c1 (stereo not drawn) [Example 55] |
| 100 to 1000 nM | 50 to 100 nM | < 50 nM | ≤ 50 nM |  |  | C=CC(=O)Nc1cccc(Oc2nc(Nc3ccc(NCCN(C)C)cc3)nc3ccsc23)c1 [Example 57] |
| 100 to 1000 nM | 50 to 100 nM | < 50 nM | ≤ 50 nM |  |  | C=CC(=O)Nc1cccc(Oc2nc(Nc3ccc(NC4CCN(C)CC4)cc3)nc3ccsc23)c1 [Example 59] |
|  | ≤ 50 nM |  | 50 to 100 nM |  |  | C=CC(=O)Nc1cccc(Oc2nc(Nc3ccc([S+](C)[O-])cc3)nc3ccsc23)c1 (stereo not drawn) [Example 68] |
|  | ≤ 50 nM |  | ≤ 50 nM |  |  | C=CC(=O)Nc1cccc(Oc2nc(Nc3ccc(S(N)(=O)=O)cc3)nc3ccsc23)c1 [Example 70] |
| < 50 nM | ≤ 50 nM | < 50 nM | ≤ 50 nM |  |  | C=CC(=O)Nc1cccc(Oc2nc(Nc3ccc(S(=O)(=O)NCCN(C)C)cc3)nc3ccsc23)c1 [Example 72] |
|  | 50 to 100 nM |  | ≤ 50 nM |  |  | C=CC(=O)Nc1cccc(Oc2nc(Nc3ccc(S(=O)(=O)NC4CCN(C)CC4)cc3)nc3ccsc23)c1 [Example 73] |
|  | 50 to 100 nM |  | ≤ 50 nM |  |  | C=CC(=O)Nc1cccc(Oc2nc(Nc3ccc(S(=O)(=O)NC4CCN(C(C)C)CC4)cc3)nc3ccsc23)c1 [Example 74] |
| 100 to 1000 nM | ≤ 50 nM | < 50 nM | ≤ 50 nM |  |  | C=CC(=O)Nc1cccc(Oc2nc(Nc3ccc(C(=O)NCCN(C)C)cc3)nc3ccsc23)c1 [Example 79] |
|  | ≤ 50 nM |  | ≤ 50 nM |  |  | C=CC(=O)Nc1cccc(Oc2nc(Nc3ccc(C(=O)N4CCC(NC)C4)cc3)nc3ccsc23)c1 (stereo not drawn) [Example 85] |

| GI50 ([1]; Homo sapiens) | IC50 (JAK3) | GI50 ([2]; Homo sapiens, HCC827, 72 h) | IC50 (BTK) | GI50 [1] | GI50 [2] | SMILES |
| --- | --- | --- | --- | --- | --- | --- |
|  | 50 to 100 nM |  | 50 to 100 nM |  |  | C=CC(=O)Nc1cccc(Oc2nc(Nc3ccc(C(=O)N4CCOCC4)cc3)nc3ccsc23)c1 [Example 88] |
|  | 50 to 100 nM |  | ≤ 50 nM |  |  | C=CC(=O)Nc1cccc(Oc2nc(Nc3ccc(C(=O)N4CCN(C)CC4)cc3)nc3ccsc23)c1 [Example 89] |
|  | 50 to 100 nM |  | ≤ 50 nM |  |  | C=CC(=O)Nc1cccc(Oc2nc(Nc3ccc(C(=O)N4CCN(C5CCN(C)CC5)CC4)cc3)nc3ccsc23)c1 [Example 91] |
| < 50 nM | 50 to 100 nM | < 50 nM | 50 to 100 nM |  |  | C=CC(=O)Nc1cccc(Oc2nc(Nc3ccc(CS(C)(=O)=O)cc3)nc3ccsc23)c1 [Example 95] |
| < 50 nM | ≤ 50 nM | 100 to 1000 nM | ≤ 50 nM |  |  | C=CC(=O)Nc1cccc(Oc2nc(Nc3ccc(CC(=O)NC4CCN(C)CC4)cc3)nc3ccsc23)c1 [Example 103] |
|  | ≤ 50 nM |  | ≤ 50 nM |  |  | C=CC(=O)Nc1cccc(Oc2nc(Nc3ccc(C4=NCCCN4)cc3)nc3ccsc23)c1 [Example 104] |
|  | ≤ 50 nM |  | 50 to 100 nM |  |  | C=CC(=O)Nc1cccc(Oc2nc(Nc3ccc(C4C(=O)N(C)CCN4C)cc3)nc3ccsc23)c1 (stereo not drawn) [Example 105] |
| < 50 nM | 50 to 100 nM | < 50 nM | 50 to 100 nM |  |  | C=CC(=O)Nc1cccc(Oc2nc(Nc3ccc(C4CCN(C)CC4)c(F)c3)nc3ccsc23)c1 [Example 127] |
| < 50 nM | ≤ 50 nM | < 50 nM | 50 to 100 nM |  |  | C=CC(=O)Nc1cccc(Oc2nc(Nc3ccc(NC4CCN(C(C)C)CC4)c(F)c3)nc3ccsc23)c1 [Example 130] |
|  | 50 to 100 nM |  | ≤ 50 nM |  |  | C=CC(=O)Nc1cccc(Oc2nc(Nc3ccc(NC4CCN(C)CC4)c(Cl)c3)nc3ccsc23)c1 [Example 141] |
|  | ≤ 50 nM |  | ≤ 50 nM |  |  | C=CC(=O)Nc1cccc(Oc2nc(Nc3ccc(C(=O)NC4CCN(C)CC4)c(C)c3)nc3ccsc23)c1 [Example 145] |
|  | 50 to 100 nM |  | 50 to 100 nM |  |  | C=CC(=O)Nc1cccc(Oc2nc(Nc3ccc(N4CCN(C(C)C)CC4)nc3)nc3ccsc23)c1 [Example 146] |
| < 50 nM | 50 to 100 nM | < 50 nM | ≤ 50 nM |  |  | C=CC(=O)Nc1cccc(Oc2nc(Nc3ccc(N4CCN(C5CCN(C)CC5)CC4)nc3)nc3ccsc23)c1 [Example 148] |
|  | 50 to 100 nM |  | 50 to 100 nM |  |  | C=CC(=O)Nc1cccc(Oc2nc(Nc3ccc(N4CCC(N5CCCC5)CC4)nc3)nc3ccsc23)c1 [Example 151] |
|  | 50 to 100 nM |  | ≤ 50 nM |  |  | C=CC(=O)Nc1cccc(Oc2nc(Nc3ccc(N4CCC(N5CCCCC5)CC4)nc3)nc3ccsc23)c1 [Example 152] |
| 50 to 100 nM | 50 to 100 nM | 50 to 100 nM | ≤ 50 nM |  |  | C=CC(=O)Nc1cccc(Oc2nc(Nc3ccc(NC4CCN(C(C)C)CC4)nc3)nc3ccsc23)c1 [Example 154] |
|  | ≤ 50 nM |  | ≤ 50 nM |  |  | C=CC(=O)Nc1cccc(Oc2nc(Nc3ccc(CN4CCC(N(C)C)C4)cc3)nc3ccsc23)c1 (stereo not drawn) [Example 177] |
|  | ≤ 50 nM |  | ≤ 50 nM |  |  | C=CC(=O)Nc1cccc(Oc2nc(Nc3ccc(CN4CCC(O)CC4)cc3)nc3ccsc23)c1 [Example 179] |

| SMILES | GI50 ([1]; Homo sapiens) | IC50 (JAK3) | GI50 ([2]; Homo sapiens, HCC827, 72 h) | IC50 (BTK) | GI50 [1] | GI50 [2] |
| --- | --- | --- | --- | --- | --- | --- |
| C=CC(=O)Nc1cccc(Oc2nc(Nc3ccc(P(=O)(OCC)OCC)cc3)nc3ccsc23)c1 [Example 67] |  | ≤ 50 nM |  | ≤ 50 nM |  |  |
